{"source": "patent US10183032B2", "about": "“Methods for treating bacterial infection” (Ball State Innovation Corporation, priority 2012, dated 2019)", "key": {"[1]": {"tested_on": "Human umbilical vein endothelial cells", "assay": "Cytotoxicity by propidium iodide exclusion, HUVEC", "format": "cell-based"}, "Staphylococcus aureus": {"tested_on": "Staphylococcus aureus", "assay": "S. aureus invasion of monocytic cell line U937, flow cytometry", "format": "cell-based", "conditions": "pretreatment 0.05 μM, 1 hour", "procedure": "FIG. 1 illustrates ML 141 limits host cell invasion. The monocytic cell line U937 was pretreated with the vehicle control dimethyl sulfoxide (DMSO) or with ML 141 (0.05 μM, 1 h) followed by infection with Alexa Fluor 488-labeled S. aureus (1 hour). The % of 488^+ cells decreased with ML 141 treatment.\n(§1) Specific pharmacologic inhibition of CDC42 has been examined to determine whether it is sufficient in the inhibition of host cell invasion by S. aureus. Host cell cytotoxicity was undetectable below 30 μM in vitro. The highest concentration of ML 141 introduced in vivo without detectable toxicity was 100 mg/kg body weight [BW]. The compound was dissolved in polyethylene glycol and administered as a single intraperitoneal injection to C57BL/6 mice."}, "[2]": {"assay": "In vivo toxicity, single intraperitoneal injection", "conditions": "dissolved in polyethylene glycol, C57BL/6 mice", "procedure": "as §1"}, "actin stress fibers": {"tested_on": "actin stress fibers", "assay": "Actin stress fiber depolymerization in HUVEC during S. aureus infection", "format": "cell-based, human", "conditions": "18-20 h pretreatment, S. aureus 1 h", "procedure": "(§2) FIG. 8A is an image depicting ML 141 limiting actin stress fiber depolymerization during infection. Human umbilical vein endothelial cells (HUVEC) were incubated with ML 141 or with the vehicle control polyethylene glycol (PEG) 18-20 h prior to infection with Staphylococcus aureus (1 h). Actin was detected using Alexa Fluor 488 phalloidin. Arrows indicate intact actin stress fibers. Arrowhead indicates cell lacking actin stress fibers. 100 cells/treatment were evaluated from randomly selected fields. Data are presented as the % of cells in which actin stress fibers were not detected. Scale bar is 50 μm.\nas §2, with “8B” for “8A”, “RSM 06” for “ML 141”, “200” for “Arrows indicate intact actin stress fibers. Arrowhead indicates cell lacking actin stress fibers. 100”\nas §2, with “8C” for “8A”, “RSM 16” for “ML 141”, “200” for “Arrows indicate intact actin stress fibers. Arrowhead indicates cell lacking actin stress fibers. 100”\nHUVEC are plated at 1×10^5 cells/ml into 35 mm glass-bottom dishes (MatTek, Ashland, Mass.) are coated with Attachment Factor, are pretreated, and are infected (1.2×10^8 CFU) as described above. […] Alexa 488 is excited by the 488 nanommeter Ar laser line and is detected using a 505-530 nanometer bandpass filter. […] Maximum pixel projections from the Z-stacks are generated and are analyzed for actin morphology."}}}
{"smiles": "COc1ccc(C2CC(c3ccccc3)=NN2c2ccc(S(N)(=O)=O)cc2)cc1", "note": "(centres unmarked) [ML 141, 4-[3-(4-methoxyphenyl)-5-phenyl-3,4-dihydropyrazol-2-yl]benzenesulfonamide]", "values": [{"measurement": "Cytotoxicity (in words)", "setting": "[1]; 10 μM, 18-20 h, Tables 4 and 5", "value": "not detected"}, {"measurement": "Mean fluorescence intensity (×10^4 ± SEM), Compound (10 μM)", "setting": "[1]; HUVEC pretreated 18-20 h", "value": "2.1 ± 0.3 ×10^4"}, {"measurement": "invasion by S. aureus (% of 488+ cells)", "setting": "Staphylococcus aureus", "value": "decreased invasion"}, {"measurement": "highest concentration introduced in vivo without detectable toxicity", "setting": "[2]", "value": 100, "unit": "mg/kg body weight"}, {"measurement": "depolymerization of actin stress fibers during infection", "setting": "actin stress fibers", "value": "remained intact"}]}
